Common to all, as to assay type: in vivo, human
The subject of one assay is experienced tasters. Briefly: Comparison of upfront sweetness on top of 5% sucrose solution, 5 experienced tasters. How it is done: Two mixtures, stevioside/rebaudioside A (3:1) and (2:1) were evaluated for their upfront sweetness in comparison with pure stevioside and rebaudioside A. Sensory evaluation was carried out with 5 experienced tasters. 30 ppm of stevioside/rebaudioside A (3:1), (2:1), and Rebaudioside A on top of 5% sucrose solution were prepared along with 20, 35, 45, 75 ppm stevioside in 5% sucrose solutions. Samples were prepared fresh and at room temperature and were paired and tasted with water rinsing in-between.

Assay [1] concerns sweet sensitive panelists. Description: Ranking test in water, sucrose iso-intensity, formal sensory panel (R-index). Particulars: for More Sweet Sample / R-index: in water. How it is done: (§1) The sensory evaluation was conducted using a ranking method. Samples at ambient temperature were randomly presented in 20 ml blind aliquots (unidentifiable by panelists). Panels consisted of 20 sweet sensitive subjects and samples were presented in 2 replications over 1 session. After tasting each sample, the mouth was rinsed thoroughly with water at ambient temperature prior to tasting the next sample. Panelists were presented with 0.5%, 1.0%, and 1.5% sucrose solutions in water and two samples of stevioside/rebaudioside A at 30 and 45 ppm in water, respectively. Subjects were asked to rank the samples from low to high with respect to perceived sweet taste. R-indices were calculated for 30 and 45 ppm stevioside/rebaudioside A samples versus either 0.5%, 1.0% or 1.5% sucrose.
The sensory evaluation was conducted using the same method as described in Example 4. Panels consisted of 20 sweet sensitive subjects and samples were presented in 2 replications over 1 session. Panelists were presented with 20 mL of 0.5%, 1.0%, and 1.5% sucrose solutions in water and two samples of stevioside/rebaudioside A (3:1) at 35 and 40 ppm in water, respectively. Subjects were asked to rank the samples from low to high with respect to perceived sweet taste. R-indices were calculated for 35 and 40 ppm stevioside/rebaudioside A samples versus either 0.5%, 1.0% or 1.5% sucrose.
Two ounces of each sample was presented in random order to 20 sweet sensitive panelists. In two replications (over 1 session), Panelists were asked to rank the samples from least sweet to most sweet. The data were subjected to an R-index analysis.

The subject of assay [2] is sweet sensitive panelists. Briefly: Iso-intensity in 5% sucrose solution (sweetness enhancement), formal sensory panel (R-index). How it is done:
as §1
The sensory evaluation was conducted using the same method as described in Example 4. Panels consisted of 20 sweet sensitive subjects and samples were presented in 2 replications over 1 session. Panelists were presented with 20 mL of 5.5%, 6.0%, 6.5%, 7.0%, 8.0% sucrose solutions and one sample of 35 ppm stevioside/rebaudioside A in 5.0% sucrose, respectively. Subjects were asked to rank the samples from low to high with respect to perceived sweet taste. R-indices were calculated for 35 ppm stevioside/rebaudioside A in 5.0% sucrose sample versus either 6.0%, 6.5%, 7.0% or 8.0% sucrose.
The objective of this test was to determine the extent to which stevioside enhances sweetness perception of a 5% sucrose solution.
This example examined the effect of 30 ppm rebaudioside A on top of 5% sucrose.

Setting [3] is: 30 ppm Stevioside vs. 0.5% sucrose.
The mark [4] stands for this setting: 30 ppm Stevioside vs. 1.0% sucrose.
The mark [5] stands for this setting: 30 ppm Stevioside vs. 1.5% sucrose.
[6] abbreviates: 30 ppm Stevioside vs. 40 ppm Stevioside.
Setting [7] is: 40 ppm Stevioside vs. 0.5% sucrose.
Setting [8] is: 40 ppm Stevioside vs. 1.0% sucrose.
[9] abbreviates: 40 ppm Stevioside vs. 1.5% sucrose.
[10] abbreviates: 5% sucrose + 35 ppm Stevioside vs. 5.0% sucrose.
The mark [11] stands for this setting: 5% sucrose + 35 ppm Stevioside vs. 6.0% sucrose.
Setting [12] is: 5% sucrose + 35 ppm Stevioside vs. 7.0% sucrose.
The mark [13] stands for this setting: 5% sucrose + 30 ppm RebA vs. 5% sucrose.
Setting [14] is: 5% sucrose + 30 ppm RebA vs. 6% sucrose.
Setting [15] is: 5% sucrose + 30 ppm RebA vs. 7% sucrose.

Structures are written as SMILES.

As to `C=C1C[C@@]23CC[C@H]4[C@@](C)(CCC[C@@]4(C)C(=O)O[C@@H]4O[C@H](CO)[C@@H](O)[C@H](O)[C@H]4O)[C@@H]2CC[C@]1(O[C@@H]1O[C@H](CO)[C@@H](O)[C@H](O)[C@H]1O[C@@H]1O[C@H](CO)[C@@H](O)[C@H](O)[C@H]1O)C3` [Stevioside, stevioside], the “Description of upfront sweetness” value in the assay with experienced tasters (20, 35, 45, 75 ppm in 5% sucrose solutions) is “delayed onset and lack of the upfront sweetness”. Moreover, the Ranking of sweetness result in the assay on experienced tasters (75 ppm in 5% sucrose solution) was “ranked as the sweetest but not the most upfront one”. Also, the “More Sweet Sample” value in assay [1] (setting [3]) was 30 ppm; in assay [1] (setting [4]), 1.0% sucrose; in assay [1] (setting [5]), 1.5% sucrose; in assay [1] (setting [6]), 40 ppm; in assay [1] (setting [7]), 40 ppm; in assay [1] (setting [8]) it was 40 ppm. Further, the “More Sweet Sample” value amounted to 1.5% sucrose in assay [1] (setting [9]), 5% sucrose + in assay [2] (setting [10]), 5% sucrose + in assay [2] (setting [11]) and 7.0% sucrose in assay [2] (setting [12]). For the same molecule, the R-index was determined as 25.625 in assay [1] (setting [3]); 66.938 in assay [1] (setting [4]); 94.750 in assay [1] (setting [5]); 80.188 in assay [1] (setting [6]); 11.375 in assay [1] (setting [7]); 29.094 in assay [1] (setting [8]). The R-index came to 82.219 in assay [1] (setting [9]), 8.281 in assay [2] (setting [10]), 21.094 in assay [2] (setting [11]) and 78.125 in assay [2] (setting [12]). Moreover, the figures for the “Sucrose equivalence of sweetness by interpolation” value in assay [1] (30 ppm in water) and in assay [1] (40 ppm in water) were 0.75 % sucrose and 1.25 % sucrose, respectively. The “Isosweet sucrose concentration determined from 30 and 40 ppm data” value in assay [1] (35 ppm in water) amounted to 1.0 % sucrose. For the same molecule, the “Iso-sweet sucrose concentration by interpolation” value in assay [2] (35 ppm in 5% sucrose) was determined as 6.5 % sucrose. For the same molecule, the “Additional sucrose equivalence (sweetness enhancing effect)” value in assay [2] (35 ppm on top of 5% sucrose) was 0.5 % sucrose equivalence.

For the molecule `C=C1C[C@@]23CC[C@H]4[C@@](C)(CCC[C@@]4(C)C(=O)O[C@@H]4O[C@H](CO)[C@@H](O)[C@H](O)[C@H]4O)[C@@H]2CC[C@]1(O[C@@H]1O[C@H](CO)[C@@H](O)[C@H](O[C@@H]2O[C@H](CO)[C@@H](O)[C@H](O)[C@H]2O)[C@H]1O[C@@H]1O[C@H](CO)[C@@H](O)[C@H](O)[C@H]1O)C3` [rebaudioside A], in assay [1] (30 ppm, iso-intensity study), the Iso-intense sucrose concentration worked out at 1 % sucrose. Further, the More Sweet Sample in assay [2] (setting [13]) stood at 5% sucrose +; in assay [2] (setting [14]) it was 5% sucrose +; in assay [2] (setting [15]) it was 7% sucrose. For the same molecule, the R-index in assay [2] (setting [13]) was found to be 1.313; in assay [2] (setting [14]), 22.625; in assay [2] (setting [15]), 89.000. Also, the “Isosweet sucrose concentration by interpolation” value in assay [2] (30 ppm in 5% sucrose) is on record as 6.5 % sucrose. Also, the “Sucrose equivalence in enhancement” value in assay [2] (30 ppm on top of 5% sucrose) was found to be 0.5 % sucrose equivalence.

The values above are taken from US20140370177A1, “COMPOSITIONS” (Givaudan S.A., priority 2011, published 2014).
